Columns and labels:
[1] = molecular target: T1, β5i subunit of 20S immunoproteasome (LMP7) (Homo sapiens, UniProt P28062); assay: fluorogenic Suc-Leu-Leu-Val-Tyr-AMC hydrolysis (chymotrypsin-like activity) with purified human […] immunoproteasome; type: biochemical
T1 construct: gene PSMB8; human 20S immunoproteasome isolated from human spleen; with 20S immunoproteasome (other subunits)
T1 sequence (P28062 73-276): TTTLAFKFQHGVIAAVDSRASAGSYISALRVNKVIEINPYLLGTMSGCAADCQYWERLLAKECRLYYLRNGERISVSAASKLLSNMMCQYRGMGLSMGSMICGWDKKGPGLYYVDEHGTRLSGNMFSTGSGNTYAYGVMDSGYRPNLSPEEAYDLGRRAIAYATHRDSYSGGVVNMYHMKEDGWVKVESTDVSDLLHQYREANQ

[2] = molecular target: T2, β5c subunit of 20S proteasome (Homo sapiens, UniProt P28074); assay: fluorogenic Suc-Leu-Leu-Val-Tyr-AMC hydrolysis (chymotrypsin-like activity) with purified human […] proteasome; type: biochemical
T2 construct: gene PSMB5; human 20S proteasome isolated from human erythrocytes; with 20S proteasome (other subunits)
T2 sequence (P28074 60-263): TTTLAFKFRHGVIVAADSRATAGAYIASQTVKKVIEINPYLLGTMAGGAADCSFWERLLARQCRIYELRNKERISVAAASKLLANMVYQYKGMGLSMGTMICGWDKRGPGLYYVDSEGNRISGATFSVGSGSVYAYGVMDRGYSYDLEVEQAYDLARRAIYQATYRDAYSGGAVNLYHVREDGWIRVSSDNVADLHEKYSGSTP

Compound | IC50 [1] [µM] | IC50 [2] [µM]
O=C(NCCc1ccccc1)[C@H](CCc1ccccc1)n1ccccc1=O [KJ3] | 7.61 ± 0.76 | –
O=C(NCc1ccccc1)[C@H](Cc1ccccc1)n1ccccc1=O [KJ9] | 16.5 ± 0.35 | 6.9 ± 0.18
